Experimental data reported in US7572811B2, “Immunosuppressant compounds and compositions” (IRM LLC, priority 2004, dated 2009).
Like-named read-outs stand apart in the source and are kept apart here.

Experiments:
[1] = tested on: peripheral blood lymphocytes; test: Measurement of circulating lymphocytes (blood lymphocyte depletion); format: in vivo, Mice (C57bl/6 male); details: Mus musculus, mice, oral gavage, read-out: ED50 (effective dose for 50% blood lymphocyte depletion)
Procedure: C. In Vivo: Screening Assays for Measurement of Blood Lymphocyte Depletion and Assessment of Heart Effect
Measurement of circulating lymphocytes: Compounds are dissolved in DMSO and diluted to obtain a final concentration of 4% DMSO (v/v, final concentration) and then further diluted in a constant volume of Tween80 25%/H2O, v/v. Tween80 25%/H2O (200 μl), 4% DMSO, and FTY720 (10 μg) are included as negative and positive controls, respectively. Mice (C57bl/6 male, 6-10 week-old) are administered 250-300 μL of compound solution orally by gavages under short isoflurane anesthesia.
[…] Whole blood samples are subjected to hematology analysis. Peripheral lymphocyte counts are determined using an automated analyzer. Subpopulations of peripheral blood lymphocytes are stained by fluorochrome-conjugated specific antibodies and analyzed using a fluorescent activating cell sorter (Facscalibur). Two mice are used to assess the lymphocyte depletion activity of each compound screened. The result is an ED50, which is defined as the effective dose required displaying 50% of blood lymphocyte depletion.

human EDG-1 (S1P-1) = biological target: T1, human EDG-1 (S1P-1) (Homo sapiens, UniProt P21453); test: EDG-1 (S1P1) GTP [γ-35S] binding SPA assay; format: biochemical; details: for EC50: GTP [γ-35S] binding, CHO cell membranes
T1 construct: c-myc (N); expressed in transfected cells; host or cells: CHO cell clones (membrane preparation)
Procedure: (§1) A. In Vitro: A Scintillation Proximity Assay (SPA) for Measuring GTP [γ-^35S] Binding to Membranes Prepared from CHO Cells Expressing Human EDG/S1P Receptors
(§2) EDG-1 (S1P1) GTP [γ-^35S] binding assay: Membrane protein suspensions are prepared from CHO cell clones stably expressing a human EDG-1 N-terminal c-myc tag. Solutions of test compounds ranging from 10 mM to 0.01 nM are prepared in DMSO/50 mM HCl and then diluted into assay buffer (20 mM HEPES, pH7.4, 100 mM NaCl, 10 mM MgCl2, 0.1% fat free BSA). Assay buffer containing 10 mM GDP is mixed with wheat germ agglutinin-coated SPA-beads (1 mg/well) followed by the addition of human EDG-1 membrane protein suspension (10 μg/well) and test compound. The bead/membrane/compound assay components are then mixed for 10-15 minutes on a shaker at room temperature. GTP [γ-^35S] (200 pM) and bead/membrane/compound assay mixture are added to individual wells of a 96 well Optiplate™ (final volume 225 μl/well), sealed and incubated at room temperature for 110 to 120 minutes under constant shaking. After centrifugation (2000 rpm, 10 minutes) luminescence is measured with a TopCount™ instrument.
EC50 values are obtained by fitting the GTP [γ-^35S] binding curves (raw data) with the dose response curve-fitting tool of ORIGIN V. 6.1. Basal binding (no compound) and the highest stimulation of GTP [γ-^35S] binding achieved by an agonist are used as the fitting range. Seven different concentrations are used to generate a concentration response curve (using two or three data points per concentration).
Concentrations of EDG receptor expressing membranes range between 13-19 μg per well.

S1P-3 (EDG-3) = S1P-3 (EDG-3) (Homo sapiens, UniProt Q99500); test: EDG-3 GTP [γ-35S] binding SPA assay; format: biochemical
Procedure: as §1, §2
(§3) EC50 values are obtained by fitting the GTP [γ-^35S] binding curves (raw data) with the dose response curve-fitting tool of ORIGIN V. 6.1. […]

S1P-2 (EDG-5) = biological target: T2, S1P-2 (EDG-5) (Homo sapiens, UniProt O95136); test: EDG-5 GTP [γ-35S] binding SPA assay; format: biochemical
T2 construct: expressed in transfected cells; host or cells: CHO cells (membrane preparation)
Procedure: as §1, §2, §3

S1P-4 (EDG-6) = biological target: T3, S1P-4 (EDG-6) (Homo sapiens, UniProt O95977); test: EDG-6 GTP [γ-35S] binding SPA assay; format: biochemical
T3 sequence (O95977 1-384): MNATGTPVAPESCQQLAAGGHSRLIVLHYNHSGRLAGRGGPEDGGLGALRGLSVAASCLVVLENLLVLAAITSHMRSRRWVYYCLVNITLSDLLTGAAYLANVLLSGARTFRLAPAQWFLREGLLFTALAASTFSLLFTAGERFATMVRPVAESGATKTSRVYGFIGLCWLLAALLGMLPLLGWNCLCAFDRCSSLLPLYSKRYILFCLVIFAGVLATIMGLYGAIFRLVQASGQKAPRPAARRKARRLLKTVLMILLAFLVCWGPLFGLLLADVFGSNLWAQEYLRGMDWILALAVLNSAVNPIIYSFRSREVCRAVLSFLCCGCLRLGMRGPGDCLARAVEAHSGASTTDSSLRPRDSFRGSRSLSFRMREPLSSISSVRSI
Procedure: as §1, §2, §3

S1P-5 (EDG-8) = biological target: T4, S1P-5 (EDG-8) (Homo sapiens, UniProt Q9H228); test: EDG-8 GTP [γ-35S] binding SPA assay; format: biochemical
T4 construct: expressed in transfected cells; host or cells: RE7777 cells as printed (membrane preparation)
Procedure: as §1, §2, §3

T1 sequence (P21453 whole entry): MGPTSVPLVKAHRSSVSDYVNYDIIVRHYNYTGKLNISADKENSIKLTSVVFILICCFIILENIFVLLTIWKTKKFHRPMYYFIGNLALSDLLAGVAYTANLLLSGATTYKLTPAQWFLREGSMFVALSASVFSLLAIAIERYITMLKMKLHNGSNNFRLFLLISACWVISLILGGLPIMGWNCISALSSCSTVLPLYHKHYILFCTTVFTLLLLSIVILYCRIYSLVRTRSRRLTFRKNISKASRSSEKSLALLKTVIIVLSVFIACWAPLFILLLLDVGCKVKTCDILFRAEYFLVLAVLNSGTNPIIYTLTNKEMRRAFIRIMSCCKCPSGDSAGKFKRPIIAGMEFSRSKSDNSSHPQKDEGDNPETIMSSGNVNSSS
S1P-3 (EDG-3), sequence (Q99500 whole entry): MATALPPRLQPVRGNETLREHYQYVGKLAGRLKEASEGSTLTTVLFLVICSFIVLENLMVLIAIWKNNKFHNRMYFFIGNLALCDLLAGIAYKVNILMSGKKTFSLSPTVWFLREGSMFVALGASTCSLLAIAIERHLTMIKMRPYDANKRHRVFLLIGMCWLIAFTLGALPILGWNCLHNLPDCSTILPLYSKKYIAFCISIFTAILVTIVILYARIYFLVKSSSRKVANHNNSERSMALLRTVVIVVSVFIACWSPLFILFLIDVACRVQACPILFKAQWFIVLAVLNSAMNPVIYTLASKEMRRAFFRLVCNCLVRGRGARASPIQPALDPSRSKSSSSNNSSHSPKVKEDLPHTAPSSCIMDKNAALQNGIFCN
T4 sequence (Q9H228 whole entry): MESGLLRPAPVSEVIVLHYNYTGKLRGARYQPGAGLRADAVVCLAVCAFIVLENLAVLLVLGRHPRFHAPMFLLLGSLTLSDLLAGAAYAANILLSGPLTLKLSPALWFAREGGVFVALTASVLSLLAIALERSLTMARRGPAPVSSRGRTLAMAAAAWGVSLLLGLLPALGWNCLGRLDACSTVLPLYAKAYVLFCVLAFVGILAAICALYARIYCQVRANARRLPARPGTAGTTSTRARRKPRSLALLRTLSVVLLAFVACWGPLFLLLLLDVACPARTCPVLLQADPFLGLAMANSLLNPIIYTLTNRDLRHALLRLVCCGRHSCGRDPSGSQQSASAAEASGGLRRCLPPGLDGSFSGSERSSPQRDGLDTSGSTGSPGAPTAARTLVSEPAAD
T2 sequence (O95136 whole entry): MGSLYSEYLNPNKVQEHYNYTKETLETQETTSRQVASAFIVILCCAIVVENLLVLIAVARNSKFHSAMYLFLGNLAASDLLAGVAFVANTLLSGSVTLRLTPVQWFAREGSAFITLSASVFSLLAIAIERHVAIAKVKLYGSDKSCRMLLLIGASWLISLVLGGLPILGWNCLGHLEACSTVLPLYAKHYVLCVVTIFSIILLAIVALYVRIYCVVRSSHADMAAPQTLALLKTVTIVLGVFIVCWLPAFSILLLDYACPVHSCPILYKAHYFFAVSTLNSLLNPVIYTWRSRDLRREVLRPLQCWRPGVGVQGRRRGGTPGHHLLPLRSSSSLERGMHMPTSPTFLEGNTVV

EC50 (human EDG-1 (S1P-1)) | selectivity for S1P-1 compared to one or more of the other receptors (human EDG-1 (S1P-1); versus S1P-3, S1P-5, S1P-6 and S1P-8 as printed) | EC50 (S1P-3 (EDG-3)) | EC50 (S1P-2 (EDG-5)) | EC50 (S1P-4 (EDG-6)) | EC50 (S1P-5 (EDG-8)) | Compound | ED50 ([1]; time point not stated) | ED50 ([1]; at 6 hours) | ED50 ([1]; at 48 hours)
0.22 nM | at least 1000 fold | – | – | – | – | Cc1cc(OCc2ccc(C3CCN(CCC(=O)O)CC3)cc2)ccc1C1CCCCC1 [Example 1, 3-{4-[4-(4-Cyclohexyl-3-methyl-phenoxymethyl)-phenyl]-piperidin-1-yl}-propionic acid] | 0.1 mg/kg | – | –
2 nM | – | 2000 nM | > 10000 nM | > 10000 nM | 370 nM | Cc1cc(OCc2ccc(C3CCN(CCC(=O)O)CC3)cc2)ccc1-c1ccccc1 [Example 8, 3-{4-[4-(2-Methyl-biphenyl-4-yloxymethyl)-phenyl]-piperidin-1-yl}-propionic acid] | – | 0.2 mg/kg | 0.8 mg/kg
